# Laboratory results: patent US4847241A, “Fluorenyl substituted tyrosyl dipeptide amides which are useful in treating pain” (priority 1988, dated 1989)
# Columns and labels:
# Writhing Mouse = assay: Writhing Assay (phenylbenzoquinone); type: in vivo, mice; conditions: 30 min before phenylbenzoquinone i.p., Active refers to the effect of the screening dose; for Writhing Mouse, Oral: screening dose 10 mg/kg p.o. (intragastric); for Writhing Mouse, Subc.: screening dose 10 mg/kg s.c.
# Procedure: Male Charles River albino mice (CD-1/HAM/1LR) weighing between 20 and 30 grams were used. Thirty minutes after subcutaneous or intragastric administration of the test compound (0.1 mg/10 gram body weight), 0.025% (w/v) phenylbenzoquinone was injected intraperitoneally (0.1 ml/10 gram body weight). Five minutes later, each mouse was placed in a large glass beaker and the number of writhes that occurred in the subsequent ten minutes is counted. A writhe consisted of dorsoflexion of the back, extension of the hindlimbs, and strong contraction of the abdominal musculature. The test compound was considered to have produced analgesia in a mouse if the number of writhes elicited by phenylbenzoquinone was equal to or less than one-half the median number of writhes recorded for the saline-treated group that day. The results were expressed as the number of mice (out of a possible ten) in which the test compound produced analgesia.
# [1] = test system: opiate receptors isolated from rat brain; type: binding; conditions: 1 nM 3H-Naloxone, rat brain receptor membranes, screening concentration 10^-5 molar
# rat = conditions: injected directly into the brain of the rat; cited from earlier work
Compound,"Writhing Mouse, Oral (Writhing Mouse)","Writhing Mouse, Subc. (Writhing Mouse)","Opiate Binding, IC50 [1]","IC50 ([1]; read-out: Opiate Binding, IC50) [nM]",analgesic activity (rat)
"2,6-dimethyltyrosyl-N-(2,3-dihydro-1H-inden-2-yl)-D-alaninamide, monohydrochloride [Example 24]",Inactive,Lethal,–,–,–
"2,6-dimethyltyrosyl-N-(6-methoxy-6-oxohexyl)-D-alaninamide, monohydrochloride [Example 5]",Inactive,Inactive,–,–,–
"2,6-dimethyltyrosyl-N-(6-methoxy-6-oxohexyl)-D-alaninamide, monohydrochloride [Example 7]",Inactive,Inactive,–,–,–
"2,6-dimethyltyrosyl-N-[3-(2-thienyl)-2E-propenyl]-D-alaninamide, monohydrochloride [Example 52]",Inactive,Active,–,–,–
"2,6-dimethyltyrosyl-N-[3-(2-thienyl)propyl]-D-alaninamide, monohydrochloride [Example 47]",Active,Active,–,–,–
"2,6-dimethyltyrosyl-N-[3-(3-thienyl)-2E-propenyl]-D-alaninamide, monohydrochloride [Example 58]",Inactive,Active,–,–,–
"2-(2R-amino-1-oxopropyl)-1,2,3,4-tetrahydroisoquinoline, monohydrochloride [Example 32]",Active,Inactive,Inactive,–,–
"Cc1cc(O)cc(C)c1CC(NC(=O)OC(C)(C)C)C(=O)N[C@H](C)C(=O)NCCSc1ccccc1 (mixture of isomers) [Example 108, N-[(1,1-dimethylethoxy)carbonyl]-2,6-dimethyl-DL-tyrosyl-N-[2-(phenylthio)ethyl]-D-alaninamide]",Inactive,Active,–,–,–
"Cc1cc(O)cc(C)c1CC(NC(=O)OC(C)(C)C)C(=O)N[C@H](C)C(=O)NCCOc1ccccc1 (mixture of isomers) [Example 115, N-[(1,1-dimethylethoxy)carbonyl]02,6-dimethyl-DL-tyrosyl-N-(2-phenoxyethyl)-D-alaninamide]",Active,Active,–,–,–
"Cc1cc(O)cc(C)c1C[C@H](N)C(=O)N[C@@H](C)C(=O)N1CCCc2ccccc21.Cl (relative stereo) [Example 29, αS-R*-amino-4-hydroxy-2,6-dimethyl-N-[1S*-methyl-2-oxo-2-(1,2,3,4-tetrahydro-1-quinolinyl)ethyl]benzenepropanamide, monohydrochloride]",Inactive,Inactive,–,–,–
"Cc1cc(O)cc(C)c1C[C@H](N)C(=O)N[C@H](C)C(=O)N1CCc2ccccc2C1.Cl (single isomer, unassigned) [Example 35, α-amino-4-hydroxy-2,6-dimethyl-N-[1R-methyl-2-oxo-2-(1,2,3,4-tetrahydro-2-isoquinolinyl)ethyl]benzenepropanamide, monohydrochloride, isomer S]",Active,Active,–,–,–
"Cc1cc(O)cc(C)c1C[C@H](N)C(=O)N[C@H](C)C(=O)NCCCc1cccs1.Cl (single isomer, unassigned) [Example 46, 2,6-dimethyltyrosyl-N-[3-(2-thienyl)propyl]-D-alaninamide, monohydrochloride DF isomer]",Inactive,Inactive,–,220,–
"C[C@@H](NC(=O)OCc1ccccc1)C(=O)NC1Cc2ccccc2C1 [Example 20, phenylmethyl [2-[(2,3-dihydro-1H-inden-2-yl)amino]-1R-methyl-2-oxoethyl]carbamate]",Inactive,Active,Inactive,–,–
"C[C@@H](N)C(=O)NC1Cc2ccccc2C1 [Example 21, 2R-amino-N-(2,3-dihydro-1H-inden-2-yl)propanamide]",Inactive,Active,Inactive,–,–
"C[C@@H](NC(=O)OCc1ccccc1)C(=O)N1CCCc2ccccc21 [Example 25, phenylmethyl [1R-methyl-2-oxo-2-(1,2,3,4-tetrahydro-1-quinolinyl)ethyl]carbamate]",Inactive,Inactive,–,–,–
"Cc1cc(O)cc(C)c1CC(N)C(=O)N[C@H](C)C(=O)N1CCCc2ccccc21.Cl (stereo partly drawn) [Example 30, α-amino-4-hydroxy-2,6-dimethyl-N-[1R-methyl-2-oxo-2-(1,2,3,4-tetrahydro-1-quinolinyl)ethyl]benezenepropanamide, monohydrochloride]",Inactive,Inactive,–,–,–
"Cc1cc(O)cc(C)c1C[C@H](N)C(=O)N[C@H](C)C(=O)NCCc1cccs1.Cl [Example 39, 2,6-dimethyl-L-tyrosyl-N-[2-(2-thienyl)ethyl]-D-alainamide, monohydrochloride]",Inactive,Inactive,–,–,–
"C[C@@H](N)C(=O)NCCCc1cccs1 [Example 44, 2R-amino-N-[3-(2-thienyl)propyl]propanamide]",Active,Active,Inactive,–,–
"COc1ccc(CCCNC(=O)[C@@H](C)N)cc1 [Example 60, αR-amino-N-[3-(4-methoxyphenyl)propyl]propanamide]",Active,Active,–,–,–
"Cc1cc(O)cc(C)c1C[C@H](N)C(=O)N[C@H](C)C(=O)NCCC(c1ccccc1)c1ccccc1.Cl [Example 73, 2,6-dimethyltyrosyl-N-(3,3-diphenylpropyl)-D-alaninamide, monohydrochloride]",Inactive,Active,–,–,–
"Cc1cc(O)cc(C)c1C[C@H](N)C(=O)N[C@H](C)C(=O)NCCSc1ccccc1.Cl [Example 109, 2,6-dimethyltyrosyl-N-[2-(phenylthio)ethyl]-D-alaninamide, monohydrochloride]",Inactive,Active,–,–,–
methionine enkepthalin,–,–,–,–,"weak, fleeting analgesic activity"
"α-amino-4-hydroxy-2,6-dimethyl-N-[1R-methyl-2-oxo-2-(1,2,3,4-tetrahydro-2-isoquinolinyl)ethyl]benzenepropanamide, monohydrochloride [Example 37]",Inactive,Inactive,–,–,–
